# Experimental data published in paper PMC10314922, “Fluorescence lifetime FRET assay for live-cell high-throughput screening of the cardiac SERCA pump yields multiple classes of small-molecule allosteric modulators” (Scientific Reports, 2023).
# Several values for one entry are separate records, joined by “and”; a condition that tells them apart may be missing. Equal entries are not always repeated.
# Key:
# SERCA2a [1] = target: T1, SERCA2a (Sus scrofa, UniProt P11607); experiment: NADH-linked Ca2+-ATPase activity assay in pig cardiac SR (pCSR) vesicles; assay type: biochemical; conditions: for Ca2+-ATPase ΔFMAX / Ca2+-ATPase ΔFMID: maximal compound effect vs DMSO control, pCSR; for Effect on Ca2+-ATPase activity (category, Fig. 4A): activators, categories activate / uncouple / inhibit
# T1 construct: Cardiac SR vesicles were isolated from fresh porcine left ventricular tissue using differential centrifugation; from tissue; host or cells: porcine left ventricular tissue (cardiac SR vesicles)
# T1 sequence (P11607 1-997 isoform P11607-2): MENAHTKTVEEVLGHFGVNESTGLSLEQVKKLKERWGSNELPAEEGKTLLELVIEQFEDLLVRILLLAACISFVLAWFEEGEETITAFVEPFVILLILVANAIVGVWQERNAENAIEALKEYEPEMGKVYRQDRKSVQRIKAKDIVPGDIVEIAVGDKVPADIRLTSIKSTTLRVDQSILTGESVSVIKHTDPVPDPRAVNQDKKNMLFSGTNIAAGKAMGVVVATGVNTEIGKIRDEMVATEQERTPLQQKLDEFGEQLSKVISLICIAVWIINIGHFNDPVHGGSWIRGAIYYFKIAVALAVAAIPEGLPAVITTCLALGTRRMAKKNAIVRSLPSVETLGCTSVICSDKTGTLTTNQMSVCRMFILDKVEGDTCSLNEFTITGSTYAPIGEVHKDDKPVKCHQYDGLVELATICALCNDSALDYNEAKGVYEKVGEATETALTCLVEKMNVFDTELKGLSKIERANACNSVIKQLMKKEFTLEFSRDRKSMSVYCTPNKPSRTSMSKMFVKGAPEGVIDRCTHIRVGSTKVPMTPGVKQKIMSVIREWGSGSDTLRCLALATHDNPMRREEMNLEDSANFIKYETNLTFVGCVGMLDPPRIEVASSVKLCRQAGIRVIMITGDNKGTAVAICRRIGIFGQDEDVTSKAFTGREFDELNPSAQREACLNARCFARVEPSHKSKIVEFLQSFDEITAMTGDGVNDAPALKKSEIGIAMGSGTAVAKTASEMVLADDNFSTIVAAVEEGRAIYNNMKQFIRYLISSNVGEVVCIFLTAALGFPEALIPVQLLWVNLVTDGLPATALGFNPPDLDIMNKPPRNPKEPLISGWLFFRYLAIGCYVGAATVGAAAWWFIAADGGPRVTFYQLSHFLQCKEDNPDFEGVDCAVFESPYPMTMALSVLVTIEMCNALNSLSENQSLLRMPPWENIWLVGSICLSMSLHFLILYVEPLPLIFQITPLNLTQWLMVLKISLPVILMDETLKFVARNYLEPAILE
# Protocol: (§1) Cardiac SR vesicles were isolated from fresh porcine left ventricular tissue using differential centrifugation of the homogenized tissue as previously described. The SR vesicles were flash-frozen and stored at − 80 °C until needed. The SERCA concentration in the ER preparations purified from HEK cell homogenate is at least 10 times less than in purified porcine cardiac SR[20], but there was sufficient expression of the fluorescent SERCA2a biosensor in HEK cells to detect FRET with high precision by FLT[22],[23],[26].
# Functional assays were performed using porcine cardiac SR (pCSR) vesicles. An enzyme-coupled, NADH-linked ATPase assay was used to measure SERCA ATPase activity in 384-well microplates. Each well contained 50 mM MOPS (pH 7.0), 100 mM KCl, 1 mM EGTA, 0.2 mM NADH, 1 mM phosphoenol pyruvate, 10 IU/mL of pyruvate kinase, 10 IU/mL of lactate dehydrogenase, 7 µM of the calcium ionophore A23187 (Sigma), and CaCl2 was added to set free [Ca^2+] to three different concentrations. Ca^2+-ATPase activity was measured at three [Ca^2+]: [Ca^2+]MAX (saturating, pCa 5.4), [Ca^2+]MID (subsaturating, midpoint, pCa 6.2), and [Ca^2+]BAS (basal non-activating, pCa 8.0). 10 μg/mL of SR vesicle, calcium, compound (0.048 to 50 μM), and assay mix were incubated for 20 min at room temperature before measurement of functional assays with each of the 18 hit compounds, because a shorter incubation time than the FRET live-cell assays achieved optimal responses. The assay was started upon the addition of MgATP, at a final concentration of 5 mM (total volume to 80 μL), and absorbance was read at 340 nm in a SpectraMax Plus^384 microplate spectrophotometer (Molecular Devices, Sunnyvale, CA).
# (§2) SERCA2a activity, F (rate of ATP hydrolysis or Ca^2+ uptake), was measured at varying pCa and varying compound concentration. F measured at [Ca^2+]MAX (saturating, pCa 5.4) or [Ca^2+]MID (subsaturating, midpoint, pCa 6.2) was corrected by subtracting the basal rate at pCa 8.0) and the % effect due to compound was reported. Concentration response curves (CRC) were fitted using the Hill function to determine VMAX (the activity at saturating [compound]), and EC50, the compound concentration at 50% effect.
# SERCA2a [2] = target: T1, SERCA2a; experiment: Oxalate-supported Fluo-4 Ca2+-uptake (Ca2+-transport) assay in pig cardiac SR (pCSR) vesicles; assay type: biochemical; conditions: for Ca2+-Uptake ΔFMAX / Ca2+-Uptake ΔFMID: maximal compound effect vs DMSO control, pCSR; for Ca2+-Uptake C10: concentration yielding 10% effect; for Effect on Ca2+-uptake (category, Fig. 4A): activators, categories activate / uncouple / inhibit; for CR (coupling ratio) VU/VA: maximum Ca2+-uptake rate / Ca2+-ATPase rate at [Ca2+]MAX, DMSO control = 0.66; for Increase in Ca2+-uptake: over [Ca2+]MAX and [Ca2+]MID; for Decrease (inhibition) of Ca2+-uptake at [Ca2+]MAX: size of decrease
# Protocol: as §1
# Ca^2+-transport assays were performed with similar porcine SR samples as in the Ca^2+-ATPase assays described above. The compound effect on the Ca^2+-transport activity of SERCA2a was determined using an oxalate-supported assay in which the change in fluorescence in a Ca^2+-sensitive dye, Fluor-4, was determined as previously described. A buffered solution containing 50 mM MOPS (pH 7.0), 100 mM KCl, 30 mg/mL sucrose, 1 mM EGTA, 10 mM potassium oxalate, 2 µM Fluo-4, 30 µg/mL porcine cardiac SR vesicles, CaCl2 calculated to reach the free [Ca^2+] (pCa 8.0, 6.2, and 5.4), and compound (0.048 to 50 μM) was dispensed into 384-well black walled, transparent bottomed plates (Greiner Bio-One) containing the tested small molecule and incubated at 22℃ for 20 min while covered and protected from light. To start the reaction, MgATP was added to a final concentration of 5 mM, and the decrease in 485-nm excited fluorescence of Fluo-4 was monitored at 520 nm for 15 min using a FLIPR Tetra (Molecular Devices, San Jose, CA).
# as §2
# [3] = [Ca2+]MAX (pCa5.4), concentration yielding 10% effect
# [4] = [Ca2+]MID (pCa6.2), concentration yielding 10% effect
SMILES,EC50 (SERCA2a [1]; [Ca2+]MAX (pCa5.4)) [µM],Ca2+-ATPase C10 (SERCA2a [1]; [3]) [µM],Ca2+-ATPase ΔFMAX (SERCA2a [1]; [Ca2+]MAX (pCa5.4)),Ca2+-ATPase C10 (SERCA2a [1]; [4]) [µM],Ca2+-ATPase ΔFMID (SERCA2a [1]; [Ca2+]MID (pCa6.2)),"Effect on Ca2+-ATPase activity (category, Fig. 4A) (SERCA2a [1])",Ca2+-Uptake ΔFMAX (SERCA2a [2]; [Ca2+]MAX (pCa5.4)),Ca2+-Uptake C10 (SERCA2a [2]; [Ca2+]MID (pCa6.2)),Ca2+-Uptake ΔFMID (SERCA2a [2]; [Ca2+]MID (pCa6.2)),"Effect on Ca2+-uptake (category, Fig. 4A) (SERCA2a [2])",CR (coupling ratio) VU/VA (SERCA2a [2]),Increase in Ca2+-uptake (SERCA2a [2]),Increase in Ca2+-ATPase activity (SERCA2a [1]),EC50 (SERCA2a [1]; [Ca2+]MID (pCa6.2)) [µM],EC50 (SERCA2a [2]; [Ca2+]MAX (pCa5.4)) [µM],Ca2+-Uptake C10 (SERCA2a [2]; [Ca2+]MAX (pCa5.4)),Decrease (inhibition) of Ca2+-uptake at [Ca2+]MAX (SERCA2a [2]) [%],EC50 (SERCA2a [2]; [Ca2+]MID (pCa6.2)) [µM],Ca2+-ATPase C10 (SERCA2a [1]; [Ca2+]MAX) [µM]
"c1ccc(-c2cc(CN3CCN(c4ncnc5ccccc45)CC3)on2)cc1 [Compound 4, 4-{4-[(3-phenyl-5-isoxazolyl)methyl]-1-piperazinyl}quinazoline]",15 ± 7.2,50.0,10 ± 5.3%,39.2,11 ± 6.1%,activate,0.5% and 0.5 ± 3.2%,47 µM,11% and 11 ± 2.7%,uncouple,0.51,0.5–10%,–,–,–,–,–,–,–
"O=C(c1ccc(-c2ccc(O)cc2)nc1)N1CCC(CCc2ccccc2)CC1 [Compound 6, 4-(5-{[4-(2-phenylethyl)piperidin-1-yl]carbonyl}pyridin-2-yl)phenol]",–,9.7,25% and 25 ± 6.3%,8.7,30% and 30 ± 10%,activate,–,4 µM and 4.2 µM,17% and 17 ± 1.4%,inhibit,0.48,–,10–25%,11.1 ± 1.5,16 ± 1.2,15 µM and 15.1 µM,21,2.9 ± 1,–
"OCC1(Cc2ccccc2F)CCCN(Cc2cc3c(cc2Cl)OCO3)C1 (centres unmarked) [Compound 12, [1-[(6-chloro-1,3-benzodioxol-5-yl)methyl]-3-(2-fluorobenzyl)-3-piperidinyl]methanol]",3.8 ± 0.3,1.0,–,1.0,–,–,–,0.8 µM,–,–,–,–,–,4.2 ± 0.4,1.8 ± 0.1,0.4 µM,–,3.2 ± 0.1,–
"Cc1cnc(C)c(N2CCN(C(=O)c3cc(COc4ccc5ncccc5c4)on3)CC2)n1 [Compound 1, 6-[(3-{[4-(3,6-dimethyl-2-pyrazinyl)-1-piperazinyl]carbonyl}-5-isoxazolyl)methoxy]quinoline]",–,–,8 ± 6.3%,–,8 ± 5.8%,activate,–,–,2% and 2 ± 1.0%,inhibit,0.49,–,10–25%,–,–,50 µM,10,–,–
"CCn1nc(C)c(CN2CCCC(Nc3ccc(C(C)C)cc3)C2)c1C (centres unmarked) [Compound 7, 1-[(1-ethyl-3,5-dimethyl-1H-pyrazol-4-yl)methyl]-N-(4-isopropylphenyl)-3-piperidinamine]",–,25,14% and 14 ± 2%,–,7% and 7 ± 3%,activate,24% and 24 ± 10%,21 µM and 20.6 µM,19% and 19 ± 9.8%,activate,0.74,–,–,–,–,14 µM,–,–,–
"COc1ccc(C(=O)C2CCCN(Cc3nc(-c4ccc(F)cc4)cs3)C2)c(OC)c1 (centres unmarked) [Compound 8, (2,4-dimethoxyphenyl)(1-{[4-(4-fluorophenyl)-1,3-thiazol-2-yl]methyl}-3-piperidinyl)methanone]",8.3 ± 0.9,4.3,49% and 49 ± 4.8%,7.8,31% and 31 ± 14%,activate,10% and 10 ± 6.5%,–,7% and 7 ± 3.0%,uncouple,0.4,0.5–10%,–,10 ± 1.9,–,25 µM,–,–,4.3
